In publication PMC10060577, “Synthesis and physicochemical characterization of acyl myricetins as potential anti-neuroexocytotic agents” (Scientific Reports, 2023):
Like-named read-outs stand apart in the source and are kept apart here.

Tests used:
[1] = Determination of 1-octanol/water partition coefficients (logP); type: physicochemical; conditions: 1-octanol/water (DDW); 1-octanol/DDW, 25 °C
Procedure: Values for logP were determined to quantify the lipophilicity or hydrophilicity of the separated acyl myricetins, using the previously reported method with slight modifications. After the addition of 1-octanol (500 μL) into 2 mL micro-tubes containing 1 mg of the separated acyl myricetins, the micro-tubes were vortexed for 1 min, followed by sonication (bath-type) for 5 min, and then 500 μL of DDW was added to the tubes. Next, the mixed solutions in the tubes were vortexed again for 5 min and phase-separated by centrifugation (3000 relative centrifugal force for 10 min at 25 °C). The 40 μL of upper layer (1-octanol) and 100 μL of lower layer (DDW) were collected and diluted with 1.96 mL of 1-octanol and 100 μL of DMSO, respectively. The solutes dissolved in the upper and lower layers were quantified based on the standard curves obtained from the UV/Vis-light absorbance spectra (250‒600 nm) using a microplate reader (Synergy H1; BioTek Instruments Inc., VT, USA; measuring interval of 3 nm, at 25 °C). Finally, the logP values were calculated as log(coctanol/cDDW), where coctanol and cDDW are the concentrations of the solutes in the upper and lower layers, respectively.

[2] = Stability assessment against oxidation in aqueous solution by UV/Vis absorbance spectra; type: physicochemical; conditions: PBS pH 7, 37 °C; for decay rate constant k: absorbance at 376 nm, exponential decay-plateau fitting
Procedure: To assess their stability in an aqueous environment at pH 7 and 37 °C, UV/Vis-light absorbance spectra of the separated acyl […] obtained using the Synergy H1 (BioTek Instruments Inc.; measuring interval of 3 nm, 25 °C), at a wavelength-range of 250-600 nm[34]. One hundred microliters of the separated esters (20 μg·mL^-1), dissolved in DMSO, were mixed in a micro-tube (2 mL) with 1.9 mL of phosphate buffered saline (PBS), pre-adjusted to pH 7 with 1 M HCl aqueous solution. After covering with a lid, the mixture was immediately incubated for 18 h in a heating shaking drybath (S08040; Thermo Scientific) at 37 °C, shaken at 700 rpm. […] The amount of non-oxidized acyl myricetin was determined, based on the absorbance ( abs ) at a wavelength of 376 nm at incubation time ( t ). An exponential decay-plateau fitting method was employed to determine decay rate constant values ( k , s^-1) for the acyl […] follows: ln(abs/abs0)=-[…]) where abs0 is the absorbance at the initiation of incubation and tp is the time in which the left side ( -kt ) reaches the plateau constant ( p ). The non-oxidized proportion of the esters, after all the incubation, was described as e^p . Monitoring the shift of specific peaks in the spectra for the acyl […] could be important for application in food and cosmetics because this can indirectly indicate color changes in the product, which would be unwelcomed to most of the customers. Therefore, the center of gravity in the spectra of the M esters was determined as follows, in order to monitor the shift of specific peaks Centerofgravitycg=∑(absiλi)/∑(absi) where absi is the absorbance at a specific wavelength ( λi , 300-400 nm). Based on the cg estimated during the incubations, the cg shifting rate ( k1 ) was determined using the two segment linear fitting curves as follows: […]1=[…] intercepts of linear curves for the left and right sides, respectively, t1 is the time that the left side ( k1t+cg1 ) takes to become the right side ( k2t+cg2 ), and k2 is an inclination of curve toward the right side.

[3] = system: differentiated PC-12 cells; test: Acetylcholine release assay; type: cell-based; conditions: 12 h incubation, read-out: EC50 (inhibition of acetylcholine release)
Procedure: PC-12 cells, obtained from Korean Cell Line Bank (KCLB, Seoul, Korea), were cultured in media containing 84% (v/v) RPMI 1640 medium, 10% (v/v) heat-inactivated horse serum, 5% (v/v) heat-inactivated FBS, and 1% (v/v) antibiotic-antimycotic (100×) solution, under humidified conditions (37 °C, 5% CO2). The culture medium was refreshed every other day. Prior to further experiments, the viability of the cells in passages 1-5 was assessed using the trypan blue exclusion test. Harvested PC-12 cells were seeded into 24-well plates coated with poly-D-[…] × 10^5 cells per well) and grown in the culture media for one day (37 °C, 5% CO2). […] GIBCO/Invitrogen) and incubated for 5 days. Then, the media were replaced with the low serum medium containing the acyl […] incubated for 12 h. Next, the acetylcholine released from the cells into the medium was quantified using an Acetylcholine Assay Kit (Fluorometric; Cell Biolabs, Inc., CA, USA) and the Synergy H1 (λex/λem, 530 nm/600 nm). Subsequently, using the Kit, the amount of released acetylcholine was determined by subtracting the basal level signal from the signal for sample-treated cells.

[4] = Neutral red uptake (NRU) cytotoxicity assay; type: cell-based; conditions: rat, PC-12 cells, 12 h incubation
Procedure: (§1) PC-12 cells, obtained from Korean Cell Line Bank (KCLB, Seoul, Korea), were cultured in media containing 84% (v/v) RPMI 1640 medium, 10% (v/v) heat-inactivated horse serum, 5% (v/v) heat-inactivated FBS, and 1% (v/v) antibiotic-antimycotic (100×) solution, under humidified conditions (37 °C, 5% CO2). The culture medium was refreshed every other day. Prior to further experiments, the viability of the cells in passages 1-5 was assessed using the trypan blue exclusion test. Harvested PC-12 cells (~ 80% confluency per well) were seeded into 96-well plates coated with type I-collagen and grown in the culture media for one day (37 °C, 5% CO2). Cells were treated with media containing the acyl […] incubated for 12 h. The media were aspirated, and cells were then incubated for 2 h with 0.33% (w/v) neutral red dissolved in the media. After the incubation, the neutral red media were carefully withdrawn, and cells were rinsed twice with PBS at 37 °C and dried for 1 h. Next, neutral red contained in the dried cells was extracted and solubilized with a solution of 50% (v/v) ethanol, 49% (v/v) DDW, and 1% (v/v) acetic acid, by incubating for 10 min. Absorbance of the neutral red-containing solution at 540 nm was recoded using the Synergy H1. Cell viability was determined based on the absorbance of treated cells compared to that of untreated cells (without acyl […]).

PC-12 cells = test: Neutral red uptake (NRU) cytotoxicity assay; type: cell-based; conditions: 12 h incubation
Procedure: as §1

[5] = system: hen egg chorioallantoic membrane; test: HET-CAM test (hen egg chorioallantoic membrane irritancy); type: in vivo, chicken; conditions: 2 mL of 1 mg·mL^−1 solution, images 1 min after addition; for HET-CAM Score: graded from 0 (no irritation) to 3 (strong irritation)
Procedure: The HET-CAM is used for detecting ophthalmic irritancy in vivo[35]. For the HET-CAM, fertilized eggs were obtained from a local market in Korea and incubated for 10 days (37.5 °C and 45% humidity), by maintaining autorotation at 90°·h^−1 to ensure proper development and viability of the embryos. After incubation, the upper shell was cut in a circular shape, without damaging the inner membrane. Immediately after cutting, the inner membrane was carefully removed with forceps, to avoid injury to the blood vessels, and 2 mL of acyl myricetin solutions were placed on the CAM. Prior to the treatment, the solutions were prepared by mixing 1.9 mL of PBS and 100 μL of DMSO dissolving acyl myricetins, to prevent sedimentation of the crystalline solute. A mixture of PBS (1.9 mL) and DMSO (100 μL), and 1 M NaOH aqueous solution were used as negative and positive controls, respectively. Next, by turning an LED flashlight at the bottom of eggshell, CAM images were obtained 1 min after samples addition.
Based on the CAM images, the severity of any hemorrhage, blood-coagulation, and hyperemia was graded from 0 (no irritation) to 3 (strong irritation) according to a previously developed scoring method. We analyzed the CAM images using ImageJ (http://rsb.info.nih.gov/ij/) to prevent arbitrary judgments with respect to the previous scoring method; then we selected blood vessels in the CAM images, and measured hemorrhage, blood-coagulation, and hyperemia as follows. First, the CAM images were loaded individually into ImageJ, cropped to a fixed size to exclude the shell, and converted to grayscale. The CAM images, grayscaled with red stack, were adjusted using the MidGrey method, and the area fraction (%Area) values of black pixels in the adjusted CAM images were measured and recorded.

For `O=c1c(O)c(-c2cc(O)c(O)c(O)c2)oc2cc(O)cc(O)c12` [M, myricetin], the logP at 5 min [1] was 1.34 ± 0.1, the “decay rate constant k” value [2] was 0.00037 s⁻¹ and the EC50 ([3]; Rattus norvegicus) was 5.36 ± 0.2 µM. For the same molecule, the CC50 at 12 h [4] was 65.4 µM, the CC50 (PC-12 cells) was 66.4 ± 10.9 µM and the “HET-CAM Description” value [5] was “Non irritant”. For the same molecule, the “HET-CAM Score” value [5] was 0.

For monopropionyl-myricetin [MP1], the “k value fold lower than that of myricetin” value (“k value fold lower than that” for short) [2] was ~ 1.9 fold, the “times by which the myricetin cg shift is faster than that of the compound” value [2] was ~ 2.4 fold and the “decay rate constant k” value [2] was 0.0002 s⁻¹. The EC50 [3] was 3.84 ± 1.08 µM, the “HET-CAM Description” value [5] was “Non irritant” and the “HET-CAM Score” value [5] was 0.

In the case of dipropionyl-myricetin [MP2], the “k value fold lower than that” value [2] is reported as 2.7 fold, the “times by which the myricetin cg shift is faster than that of the compound” value [2] is reported as 5.1 fold and the “decay rate constant k” value [2] is reported as 0.00013 s⁻¹. The EC50 [3] was 3.58 ± 0.75 µM, the “HET-CAM Description” value [5] was “Non irritant” and the “HET-CAM Score” value [5] was 0.

In the case of `[Na+].[OH-]` [1 M NaOH, NaOH, reference compound], the “HET-CAM Description” value [5] is reported as “Severe irritant” and the “HET-CAM Score” value [5] is reported as 3.

In the case of monooctanoyl-myricetin [MO1], the “k value fold lower than that” value [2] is reported as ~ 3.1 fold, the “times by which the myricetin cg shift is faster than that of the compound” value [2] is reported as ~ 2.3 fold and the “decay rate constant k” value [2] is reported as 0.00012 s⁻¹. The EC50 [3] was 2.51 ± 0.89 µM, the “HET-CAM Description” value [5] was “Non irritant” and the “HET-CAM Score” value [5] was 0.
